The values that follow come from US6660251B1, “Galenic formulation containing biotin” (Merck Patent GmbH, priority 1999, dated 2003).

The test system of data set [1] is HaCaT keratinocytes. The data set can be described thus: Investigations on the lipid (fatty acid) content of HaCaT keratinocytes under biotin. The class given is cell-based, human. The method, then:
(§1) HaCaT cells (human adult low-calcium high-temperature keratinocytes) and native human keratinocytes are cultured in Gibco's keratinocyte serum-free medium (SFM) with addition of BPE (25 μg/ml bovine hypophysis extract) and rEGF (0.1-0.2 ng/ml, recombinant epidermal growth factor) in 5% strength CO2 atmosphere (pH 7.2-7.4) at 36.6° C. in the low-calcium status (0.09 mM) in culture flasks (1 million cells/20 ml of SFM) and treated with the biotin solution (biotin dissolved in buffer according to McIloaine; medium concentration 10^−7-10^−3 mol/l and solvent control) on the 3rd day after sowing. On the 6th day, the confluent monolayer is harvested and the samples are prepared, individual pellets up to 3 million cells each being used for the lipid extraction and for the protein determination.
The cells are extracted following the lipid extraction of Bligh and Dyer (B. E. Bligh et al. (1959) A rapid method of total lipid extraction and purification. Can. J. Biochem. Physiol. 37: 911-917). For this, the cell pellet is treated with 20 ml of a solvent mixture (chloroform: methanol=2:1), homogenized with stirring and extracted with shaking in the dark for 30 min. It is then filtered through a sterile filter and the extract is concentrated on a vacuum rotary evaporator.
(§2) The lipid film is taken up in 4 ml of methanol (gradient grade for HPLC) and analyzed via GC-MS.
The extracted lipids of the keratinocytes are analyzed as methanolic solutions via GC-MS in order to quantify the fatty acids contained therein. 100 μl of the solution are reacted with 1 μl each of 0.2 M trimethylsulfionium hydroxide to give methyl esters in order to improve the evaporability.
(§3) The protein content of the cells is determined according to the Lowry method using the protein assay kit. After preparation according to the procedure for the kit (P 5656), the measurement was carried out on an absorption reader at 690 nm.
The results of the influence of biotin on the fatty acid content of HaCaT keratinocytes are shown in FIGS. 1 to 4 for various concentrations of biotin (dissolved in buffer according to McIloaine). As control, the fatty acid content of the HaCaT keratinocytes after corresponding action of the buffer without biotin is moreover shown in FIGS. 1 to 4. The contents of the fatty acids myristic acid (MA), palmitic acid (PA), stearic acid (SA), oleic acid (OS) and linoleic acid (LA) are shown based on the protein content of the cells.

In data set [2] the test system is native human keratinocytes. Put plainly: Investigations on the lipid (fatty acid) content of native human keratinocytes under biotin. The note with it: under the action of biotin. Type of data set: cell-based. The procedure: as §1, with “determination. […]” for “determination.”
as §2
The extracted lipids of the keratinocytes are analyzed as methanolic solutions via GC-MS in order to quantify the fatty acids contained therein. […]
as §3

Data set [3] in a line: Penetration investigations on human skin ex vivo (FRANZ diffusion cell, 14C-biotin). Type of data set: in vitro ADME. An excerpt: To characterize the penetration behavior of biotin from different emulsions in excised human skin, FRANZ's diffusion cell is chosen as an in-vitro model. The selection of the model is based on the experience of the authors, who were able to detect correlating results between the in-vitro data of the model and the in-vivo results (R. J. Feldmann, et al. (1970): Absorption of some organic compounds through the skin in man. J. Invest. Dermatol. 54: 399-404: T. J. Franz (1975): Percutaneous absorption. On the relevance of in vitro data. J. Invest. Dermatol. 64: 190-195). The basic unit of the FRANZ diffusion cell consists of a double-walled, temperature-controllable glass section. The acceptor liquid which is continuously kept in the homogeneous state by stirring is situated therein. In direct contact with the acceptor is the sample material on a gauze, which is stabilized by a glass ring and a metal clamp. A glass cover functions as evaporation protection for the upkeep of largely constant hydration conditions during the investigation period. […] It is determined quantitatively in fractionation of the detachments in pairs (10×2). […] Following this, the samples are measured in the liquid scintillation counter with addition of two blank values. […]

The test system of data set [4] is skin of old people. The note with it: cited from earlier work.
The conditions of data set [5]: cited from earlier work.

As for `O=C(O)CCCCC1SCC2NC(=O)NC21` (stereo not drawn) [biotin, hexahydro-2-oxiothieno [3,4-d]imidazole-4-valeric acid], the “concentration of linoleic acid (LA)” value in data set [1] (HaCaT keratinocytes, under the action of biotin) is given as “absence of an increase”; in data set [2] it was “absence of an increase”. The “lipid synthesis power of keratinocytes” value is recorded as “increased” in data set [1] (biotin concentration in the medium 10^−5 to 10^−3 mol/l) and “inefficacious” in data set [1] (biotin concentration in the medium 10^−6 mol/l). Also, the “concentration of the fatty acids myristic acid (MA), palmitic acid (PA), stearic acid (SA) and oleic acid (OA)” value in data set [1] (culture of HaCaT keratinocytes, under the action of biotin) is recorded as “Increases”; in data set [2], “Increases”. In data set [1] (stimulation of lipid synthesis, from FIG. 2), the effective biotin concentration is given as 10^−5 mol/l. Besides, the “penetration of biotin through the horny layer of the human skin” value in data set [3] was “does not penetrate or does not penetrate in an efficacious concentration”. Besides, the “epithelial and histopathological changes in the areas treated” value in data set [4] (in vivo) was “not possible to show any epithelial and histopathological changes at all”. Further, the “development of wrinkles on the skin of old people” value in data set [4] (topically applied formulations, biotin content 0.25% and 0.50%) is “visible reduction”. Further, in data set [5] (continuous biotin therapy), the “efficacy in soft, brittle and splitting nails, different forms of alopecia and atopic and seborrheic dermatitis” value was “possible to show the efficacy”. Further, in data set [5] (in vivo), the side effects result is on record as “no side effects at all”.
